Where a name gives a salt, the structure may show the parent alone.
target: T1, cloned human P2Y1 receptors (Homo sapiens, UniProt P47900); assay: Binding Assay A: membrane binding assay, inhibition of [33P] 2MeS-ADP binding (WGA FlashPlates)
T1 construct: expressed in transfected cells
From the text: A membrane binding assay was used to identify inhibitors of [^33P] […] The cDNA clone for human P2Y1 was obtained from Incyte Pharmaceuticals and its sequence confirmed by established techniques (for a compendium of techniques used see Ausubel, F. et al. Current Protocols in Molecular Biology 1995 John Wiley and Sons, NY, N.Y.). The essential coding sequences were subcloned into pcDNA 3.1 (Invitrogen) to produce a P2Y1 expression construct. This construct was then transfected into the human embryonic kidney cell line HEK-293 and stable transfectants selected in Genetcin® (G418 sulfate; Life Technologies). […] Membranes were prepared by growing HEK293 #49 in 150 mm dishes in DMEM/10% FBS in the presence of 1 mg/ml G418 until cells were 80-90% confluent. Plates were then washed with cold (4° C.) D-PBS twice and cells harvested by scraping into 10 mL D-PBS. Cells were pelleted by centrifugation (1,000 g, 10 min, 4° C.) and the resulting pellet resuspended in Lysis Buffer (10 mM Tris (7.4), 5 mM MgCl2 containing Complete® protease inhibitor cocktail (Roche Cat #1873580) as recommended by the manufacturer). The suspension was then homogenized in a Dounce homogenizer (10-15 strokes; B pestle, on ice) and the homogenate spun at 1,000 g, 4° C., 5 min to pellet large debris. The supernatant was centrifuged at 150,000 g, 4° C., for 1 hour and the resulting membrane pellet resuspended in 0.5-1 mL of Buffer B (15 mM HEPES (7.4), 145 mM NaCl, 0.1 mM MgCl2, 5 mM EDTA, 5 mM KCl) and stored at −70° C. until used.
Binding reactions were performed in WGA FlashPlates (PerkinElmer Life Sciences, Cat # SMP105A) in a volume of 200 μL containing ˜45 fmol of P2Y1 receptor (5 μg of total protein), 0.5 nM [^33P] […] Reactions were allowed to proceed to completion at room temperature for 1 hour and then the aqueous solution aspirated. Plates were sealed and the residual [^33P] bound to the plate determined by scintillation counting.

T1 sequence (P47900 whole entry): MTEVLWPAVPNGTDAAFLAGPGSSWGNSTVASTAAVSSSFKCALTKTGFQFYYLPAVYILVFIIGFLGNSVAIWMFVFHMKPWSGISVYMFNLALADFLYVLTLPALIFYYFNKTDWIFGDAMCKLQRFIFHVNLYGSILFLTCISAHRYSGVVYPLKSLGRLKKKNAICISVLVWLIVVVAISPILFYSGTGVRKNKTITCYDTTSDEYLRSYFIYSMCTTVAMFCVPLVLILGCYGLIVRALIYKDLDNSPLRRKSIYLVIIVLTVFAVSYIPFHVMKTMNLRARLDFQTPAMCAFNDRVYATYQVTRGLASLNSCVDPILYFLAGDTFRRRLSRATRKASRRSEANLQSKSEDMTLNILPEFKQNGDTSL

Row | Structure (SMILES) | Ki
1 | CC(C)c1ccccc1-n1cc(C(=O)Nc2ccc(N3CCOCC3)cc2)c2ccccc21 [Example 53, 1-(2-isopropylphenyl)-N-(4-morpholinophenyl)-1H-indole-3-carboxamide 2,2,2-trifluoroacetic acid salt] | 1.21 µM
2 | CN(C)Cc1ccccc1-c1cn(C(=O)Nc2ccc(OC(F)(F)F)cc2)c2ccccc12 [Example 33, 3-(2-((dimethylamino)methyl)phenyl)-N-(4-(trifluoromethoxy)phenyl)-1H-indole-1-carboxamide bis(2,2,2-trifluoroacetic acid) salt] | 1.3 µM
3 | CC(C)c1ccccc1-c1cn(C(=O)Nc2ccc(-c3ccccc3)cc2)c2ccccc12 [Example 27, N-(biphenyl-4-yl)-3-(2-isopropylphenyl)-1H-indole-1-carboxamide] | 0.144 µM
4 | CC(C)c1ccccc1-c1cn(C(=O)Nc2ccc(N(C)C)cc2)c2ccccc12 [Example 12, N-(4-(dimethylamino)phenyl)-3-(2-isopropylphenyl)-1H-indole-1-carboxamide 2,2,2-trifluoroacetic acid salt] | 0.117 µM

Molecules with a lower Ki, results first:

Row | Ki | Structure (SMILES)
5 | 0.096 µM | CC(C)c1ccccc1-c1cn(C(=O)Nc2ccc(I)cc2)c2ccccc12 [Example 40, N-(4-iodophenyl)-3-(2-isopropylphenyl)-1H-indole-1-carboxamide]
6 | 0.075 µM | CC(C)c1ccccc1-c1cn(C(=O)Nc2ccccc2)c2ccccc12 [Example 1, 3-(2-isopropylphenyl)-N-phenyl-1H-indole-1-carboxamide]

— patent publication US7960569B2, “Indole antagonists of P2Y1 receptor useful in the treatment of thrombotic conditions” (Bristol-Myers Squibb Company, priority 2006, dated 2011)
